Measured values taken from US5756145A, “Durable, Resilient and effective antimicrobial coating for medical devices and method of coating therefor” (priority 1995, dated 1998).
Counter-ions that a name gives are not always drawn.

Columns and labels:
Pseud. aeruginosa = experiment: zones of inhibition on agar plates, Pseud. aeruginosa (Examples 1, 2, 5, 7); conditions: P. aerug, Init., triple layer, Table 7
Description: (§1) Selected single layer and triple layer coated cylinders were then placed on agar plates that had been freshly overlaid with one of the microorganisms shown below in Table 1.
(§2) The coated cylinders were then removed from the serum and placed on agar plates that had been freshly overlaid with one of the microorganisms shown below in Table 2.
(§3) The devices and coating solution were preheated to 45° C. After coating the devices were allowed to dry for about four hours. […] The devices were then allowed to dry for an additional two hours. The resilient coated layer was applied over the durable coated layer by dipping the devices for approximately 5-10 seconds in a collodion solution. The devices were then allowed to dry for an additional two hours. Selected coated devices were then incubated in human serum at 37° C. for one and three weeks.

Staph. epidermidis = experiment: zones of inhibition on agar plates, Staph. epidermidis (Examples 1, 2, 5, 7); conditions: S. epidermidis, Init., triple layer, Table 7
Description: as §1, §2, §3

Candida albicans [1] = experiment: zones of inhibition on agar plates, Candida albicans (Examples 1, 2, 5, 7); conditions: Init., triple layer, Table 7
Description: as §1, §2, §3

[2] = tested on: bacterial and fungal organisms; conditions: cited from earlier work; for bacteriostatic/bactericidal nature / spectrum of antimicrobial activity: general statement; for effect of organic matter on effectiveness: organic matter such as blood
protein synthesis = conditions: general statement; cited from earlier work
[3] = cited from earlier work; for solubility in organic solvents: organic solvents/solutions
Candida albicans [4] = conditions: cited from earlier work
[5] = light; cited from earlier work
Escherichia coli = conditions: cited from earlier work
Staphylococcus aureus = conditions: cited from earlier work
Pseudomonas aeruginosa = conditions: cited from earlier work
[6] = tested on: bacterial DNA-dependent RNA polymerase; conditions: general statement; cited from earlier work

What does the source list for `[H]/N=C(\N/C(=N/[H])NCCCCCCNC(=N)NC(=N)Nc1ccc(Cl)cc1)Nc1ccc(Cl)cc1` [Chlorhexidine]?
Zones of inhibition (Pseud. aeruginosa): 20 m.m.; Zones of inhibition (Staph. epidermidis): 22 m.m.; Zones of inhibition (Candida albicans [1]): 26 m.m.; bacteriostatic/bactericidal nature [2]: very rapid bactericidal activity; spectrum of antimicrobial activity [2]: broad range of microorganisms, including gram-positive bacteria (such as staphylococci, Enterococcus species), gram-negative bacteria (such as Escherichia coli and Pseudomonas aeruginosa) and Candida species; effect of organic matter on effectiveness [2]: not affected by the presence of organic matter

Which results are given for `Cc1cc(O)cc(C)c1Cl` [Chloroxylenol, 4-chloro, 3,5-dimethyl phenol]?
Zones of inhibition (Pseud. aeruginosa): 13 m.m.; Zones of inhibition (Staph. epidermidis): 32 m.m.; Zones of inhibition (Candida albicans [1]): 28 m.m.; spectrum of antimicrobial activity [2]: good antimicrobial activity against gram-positive bacteria and fungi, and fair activity against gram-negative bacteria; effect of organic matter on effectiveness [2]: minimally affected by organic matter

For `CC[C@H]1OC(=O)[C@H](C)[C@@H](O[C@H]2C[C@@](C)(OC)[C@@H](O)[C@H](C)O2)[C@H](C)[C@@H](O[C@@H]2O[C@H](C)C[C@H](N(C)C)[C@H]2O)[C@](C)(O)C[C@@H](C)C(=O)[C@H](C)[C@@H](O)[C@]1(C)O` [Erythromycin], which “inhibition of protein synthesis” value (protein synthesis) is on record?
The value was “inhibition of protein synthesis without affecting nucleic acid synthesis”.

What about the “spectrum of antimicrobial activity” value [2] of the same molecule?
The value was “active against a variety of gram-positive and gram-negative bacteria”.

What does the source list for `Oc1c(Cl)cc(Cl)c(Cl)c1Cc1c(O)c(Cl)cc(Cl)c1Cl` [Hexachlorophene]?
bacteriostatic/bactericidal nature [2]: bacteriostatic; spectrum of antimicrobial activity [2]: active against staphylococci and other gram-positive bacteria; solubility in organic solvents [3]: soluble; solubility in water ([3]; water): soluble

With `Cn1sccc1=O` [Methylisothiazolone, 2-Methylisothiazolone Hydrochloride] as the molecule, how does the MIC (Candida albicans [4]) read?
The MIC was 320 µg/mL.

And the photosensitivity [5]?
Its photosensitivity is “photosensitive”.

And the MIC (Escherichia coli)?
The MIC was 40 µg/mL.

What about the MIC (Staphylococcus aureus) of the same molecule?
The MIC was 80 µg/mL.

What about the bacteriostatic/bactericidal nature [2] of the same molecule?
Its bacteriostatic/bactericidal nature is “bacteriostatic”.

And the “spectrum of antimicrobial activity” value [2]?
Its value is “broad spectrum antimicrobial activity”.

And the “solubility in acetic acid” value ([3]; acetic acid (rifampin: acetic aqueous solutions))?
The value was “not soluble”.

And the “solubility in formic acid” value ([3]; formic acid)?
The value was “soluble”.

What about the “solubility in organic solvents” value [3] of the same molecule?
Its value is “soluble”.

And the MIC (Pseudomonas aeruginosa)?
Its MIC is 80 µg/mL.

Which “inhibition of protein synthesis” value (protein synthesis) does the source give for `CN(C)c1ccc(O)c2c1C[C@H]1C[C@H]3[C@H](N(C)C)C(O)=C(C(N)=O)C(=O)[C@@]3(O)C(O)=C1C2=O` [Minocycline] here?
The value was “inhibiting protein synthesis”.

And the bacteriostatic/bactericidal nature [2]?
The bacteriostatic/bactericidal nature was “primarily bacteriostatic”.

And the “spectrum of antimicrobial activity” value [2]?
The value was “active against a wide range of gram-negative and gram-positive organisms”.

With `CCOc1ccc2ccccc2c1C(=O)N[C@@H]1C(=O)N2[C@@H]1SC(C)(C)[C@@H]2C(=O)O` [Nafcillin] as the molecule, how does the “spectrum of antimicrobial activity” value [2] read?
Its value is “effective against both penicillin-G-sensitive and penicillin-G-resistant strains of Staphylococcus aureus as well as against pneumococcus, beta-hemolytic streptococcus, and alpha streptococcus”.

Which bacteriostatic/bactericidal nature [2] does the source give for `CO[C@H]1/C=C/O[C@@]2(C)Oc3c(C)c(O)c4c(O)c(c(/C=N/N5CCN(C)CC5)c(O)c4c3C2=O)NC(=O)/C(C)=C\C=C\[C@H](C)[C@H](O)[C@@H](C)[C@@H](O)[C@@H](C)[C@H](OC(C)=O)[C@@H]1C` [Rifampin] here?
Its bacteriostatic/bactericidal nature is “bactericidal”.

What about the “spectrum of antimicrobial activity” value [2] of the same molecule?
The value was “broad spectrum activity against a wide range of gram-positive and gram-negative bacteria”.

And the “inhibition of bacterial DNA-dependent RNA polymerase” value [6]?
Its value is “inhibits bacterial DNA-dependent RNA polymerase activity”.

Which bacteriostatic/bactericidal nature [2] does the source give for `Cc1ccc(C(C)C)c(O)c1` [Thymol, 5-methyl-2 isopropyl phenol] here?
The bacteriostatic/bactericidal nature was “bacteriostatic”.

What about the “spectrum of antimicrobial activity” value [2] of the same molecule?
Its value is “broad spectrum antimicrobial activity against gram-positive bacteria (such as staphylococci and Enterococcus species), gram-negative bacteria (such as Escherichia coli and Pseudomonas aeruginosa) and Candida species”.

With `CC1=CCC(C(C)(C)O)CC1` (stereo not drawn) [α-Terpineol, α-α-4-trimethyl-3-cyclohexine-1-methanol] as the molecule, how does the bacteriostatic/bactericidal nature [2] read?
The bacteriostatic/bactericidal nature was “bacteriostatic”.

What about the “spectrum of antimicrobial activity” value [2] of the same molecule?
Its value is “broad spectrum antimicrobial activity against gram-positive bacteria (such as staphylococci and Enterococcus species), gram-negative bacteria (such as Escherichia coli and Pseudomonas aeruginosa) and Candida species”.
